Assay results published in patent US20240368194A1, “IRAK4 DEGRADATION AGENT, AND PREPARATION METHOD THEREFOR AND USE THEREOF” (SHANGHAI LEADINGTAC PHARMACEUTICAL CO. LTD., priority 2021, published 2024).
pIC50: −log10 of the molar value.

Assays:
IRAK4 kinase = IRAK4 kinase (Homo sapiens (Human), UniProt Q9NWZ3); assay: IRAK4 kinase activity test (KinEASE-STK S1 HTRF kit); type: biochemical; settings: 2.5 nM IRAK4 kinase, 7 μM ATP, 37° C. 120 min
Method: Then 2.5 nM 1RAK4 kinase (Carna), 1 μM biotinylated polypeptide substrate (Cisbio) and 7 μM adenosine triphosphate (Sigma-Aldrich) were sequentially added, and the mixtures were incubated at 37° C. for 120 min. Subsequently, an anti-phosphoserine/threonine antibody (Cisbio) conjugated with a europium element compound and conjugated modified XL665 streptavidin (Cisbio) were added to the reaction systems to stop the reactions. After 1 h of incubation at room temperature, the fluorescence intensity of each well was measured at the excitation wavelength of 337 nm and the emission wavelengths of 620 nm and 665 nm with a microplate reader EnVision (PerkinElmer) in the HTRF mode, and Ratio values were calculated using the formula Ratio=(665 nm/620 nm)×[…]. The inhibition rate of the compound at each concentration was calculated by comparing the fluorescence intensity ratio with that of the control group. Then a non-linear curve fitting of logarithmic concentration-inhibition rate was performed using GraphPad Prism 7, and the IC50 value of the compound was obtained.

[1] = target: IRAK4 protein in THP-1 cells (Homo sapiens (Human), UniProt Q9NWZ3); assay: Degradation of IRAK4 in THP-1 cells, human IRAK4 AlphaLISA assay; type: cell-based; settings: 24 h incubation
Sequence of IRAK4 protein in THP-1 cells (Q9NWZ3 whole entry): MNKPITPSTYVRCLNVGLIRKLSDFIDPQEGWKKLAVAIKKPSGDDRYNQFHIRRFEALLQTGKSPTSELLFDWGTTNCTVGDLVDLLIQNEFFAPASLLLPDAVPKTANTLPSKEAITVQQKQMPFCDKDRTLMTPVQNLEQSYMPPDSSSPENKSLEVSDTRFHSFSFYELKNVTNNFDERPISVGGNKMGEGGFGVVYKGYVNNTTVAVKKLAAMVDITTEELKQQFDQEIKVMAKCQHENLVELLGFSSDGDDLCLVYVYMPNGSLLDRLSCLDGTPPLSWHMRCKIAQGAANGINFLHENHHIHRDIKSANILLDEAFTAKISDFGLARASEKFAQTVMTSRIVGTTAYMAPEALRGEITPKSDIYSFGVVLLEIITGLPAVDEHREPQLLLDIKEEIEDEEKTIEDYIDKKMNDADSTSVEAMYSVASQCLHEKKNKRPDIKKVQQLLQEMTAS
How it was run: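 THP-1 cells, after overnight plating, exposed 24 h at 37 °C to compound at 0.03-3000 nM final. Lysate IRAK4 read by Western blot and by AlphaLISA (acceptor beads 10 μg/mL, biotin anti-IRAK4 1 nM, donor beads 40 μg/mL, 23 °C). DC50 and Dmax from log concentration-response fit.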

Sequence of IRAK4 kinase (Q9NWZ3 whole entry): as above

Structure (SMILES)	pIC50 (IRAK4 kinase)	DC50 [1]	Dmax [1]
O=C1CCN(c2cc(C(=O)N3CCN(CCCCN4CCC(n5cc(NC(=O)c6cnn7ccc(N8C[C@H]9C[C@@H]8CO9)nc67)c(C(F)F)n5)CC4)CC3)ccc2Cl)C(=O)N1 [Example 40, 5-((1R,4R)-2-oxa-5-azabicyclo[2.2.1]heptan-5-yl)-N-(1-(1-(4-(4-(4-chloro-3-(2,4-dioxotetrahydropyrimidin-1(2H)-yl)benzoyl)piperazin-1-yl)-n-butyl)piperidin-4-yl)-3-(difluoromethyl)-1H-pyrazol-4-yl)pyrazolo[1,5-a]pyrimidine-3-carboxamide]	7.46	32.8 nM	79.2%
O=C1CCN(c2cc(C(=O)N3CCC4(CCC(CCN5CCC(n6cc(NC(=O)c7cnn8ccc(N9CCOCC9)nc78)c(C(F)F)n6)CC5)CC4)CC3)ccc2Cl)C(=O)N1 [Example 42, N-(1-(1-(2-(3-(4-chloro-3-(2,4-dioxotetrahydropyrimidin-1(2H)-yl)benzoyl)-3-azaspiro[5.5]undecan-9-yl)ethyl)piperidin-4-yl)-3-(difluoromethyl)-1H-pyrazol-4-yl)-5-morpholinopyrazolo[1,5-a]pyrimidine-3-carboxamide]	7.73	3.66 nM	91.7%
O=C1CCN(c2cc(C(=O)N3CCC4(CCC(CCN5CCC(n6cc(NC(=O)c7cnn8ccc(N9C[C@H]%10C[C@@H]9CO%10)nc78)c(C(F)F)n6)CC5)CC4)CC3)ccc2Cl)C(=O)N1 [Example 43, 5-((1R,4R)-2-oxa-5-azabicyclo[2.2.1]heptan-5-yl)-N-(1-(1-(2-(3-(4-chloro-3-(2,4-dioxotetrahydropyrimidin-1(2H)-yl)benzoyl)-3-azaspiro[5.5]undecan-9-yl)ethyl)piperidin-4-yl)-3-(difluoromethyl)-1H-pyrazol-4-yl)pyrazolo[1,5-a]pyrimidine-3-carboxamide]	7.35	15.1 nM	79.5%
Cc1ccc(C(=O)N2CCC3(CCC(CN4CCC(n5cc(NC(=O)c6cnn7ccc(N8C[C@H]9C[C@@H]8CO9)nc67)c(C(F)F)n5)CC4)CC3)CC2)cc1N1CCC(=O)NC1=O [Example 44, 5-((1R,4R)-2-oxa-5-azabicyclo[2.2.1]heptan-5-yl)-N-(3-(difluoromethyl)-1-(1-((3-(3-(2,4-dioxotetrahydropyrimidin-1(2H)-yl)-4-methylbenzoyl)-3-azaspiro[5.5]undecan-9-yl)methyl)piperidin-4-yl)-1H-pyrazol-4-yl)pyrazolo[1,5-a]pyrimidine-3-carboxamide]	7.87	6.3 nM	80.5%

Further compounds by rising pIC50 (IRAK4 kinase), results first:

pIC50 (IRAK4 kinase)	DC50 [1]	Dmax [1]	Structure (SMILES)
7.88	42 nM	81.1%	O=C1CCN(c2cc(C(=O)N3CCC(CCN4CCC(n5cc(NC(=O)c6cnn7ccc(N8CCOCC8)nc67)c(C(F)F)n5)CC4)CC3)ccc2F)C(=O)N1 [Example 37, N-(3-(difluoromethyl)-1-(1-(2-(1-(3-(2,4-dioxotetrahydropyrimidin-1(2H)-yl)-4-fluorobenzoyl)piperidin-4-yl)ethyl)piperidin-4-yl)-1H-pyrazol-4-yl)-5-morpholinopyrazolo[1,5-a]pyrimidine-3-carboxamide]
8.15	3.22 nM	97.1%	Cc1ccc(C(=O)N2CCC3(CCC(CN4CCC(n5cc(NC(=O)c6cnn7ccc(N8CCC[C@H](N)C8)nc67)c(C(F)F)n5)CC4)CC3)CC2)cc1N1CCC(=O)NC1=O [Example 49, (S)-5-(3-aminopiperidin-1-yl)-N-(3-(difluoromethyl)-1-(1-((3-(3-(2,4-dioxotetrahydropyrimidin-1(2H)-yl)-4-methylbenzoyl)-3-azaspiro[5.5]undecan-9-yl)methyl)piperidin-4-yl)-1H-pyrazol-4-yl)pyrazolo[1,5-a]pyrimidine-3-carboxamide]
